Reference: US20230302031A1, “Modulators Of Purinergic Receptors and Related Immune Checkpoint For Treating Acute Respiratory Distress Syndrome” (priority 2020, published 2023)
Read-outs that look alike come from different tables or passages of the source.

What was measured:
SARS-CoV-2 [1] = assay: SARS-CoV-2 replication in Vero E6 cells (RdRp and E mRNA, quantitative RT-PCR); type: cell-based; conditions: 500 μM UTP, 100 μM Diquafosol, 5 μM Denufosol; for amount of RdRp and E mRNA (viral replication): Vero E6, 16 and 24 hours of infection, 50 μM PPADS, 100 μM BzATP, FIG. 2; for replication of SARS-CoV-2 and/or associated cytopathogenic effects: Vero E6, RdRp and E mRNA, Spike-positive cells, viability, FIG. 7D, 7E, 7I-7K, 12A, 12B
SARS-CoV-2 [2] = type: cell-based; conditions: FIG. 7K; for intracellular expression of Spike: Vero E6, 24 hours, 50 μM PPADS, 100 μM OxATP, 100 μM BzATP; for ACE2 expression in response to SARS-CoV-2 infection: western blot
ACE2 [3] = type: cell-based, African green monkey; conditions: Vero E6, 24 hours; 500 μM UTP, 100 μM Diquafosol, 5 μM Denufosol, 50 μM PPADS, 100 μM OxATP, 100 μM BzATP; FIG. 14A
ACE2 [4] = type: cell-based; conditions: ACE2-A549, 24 hours; same concentrations; FIG. 14B
Vero E6 cells = conditions: Vero E6, 72 hours, MTT; PPADS and OxATP at 100 μM; BzATP indicated concentrations
ACE2-A549 cells = conditions: ACE2-A549, 72 hours, MTT; PPADS and OxATP at 100 μM; BzATP indicated concentrations
P2Y2-NLRP3 interaction = molecular target: T1, P2Y2-NLRP3 interaction (Homo sapiens, UniProt P41231); assay: P2Y2-NLRP3 proximity ligation assay in PMA-primed THP1; type: cell-based; conditions: 100 μM, 96 hours; FIG. 10A
T1 construct: Frequency of P2Y2-NLRP3 PLA+ cells detected after treatment of PMA-primed THP1 with 100 μM AR-C118925XX; endogenous in cells; host or cells: PMA-primed THP1 macrophages (ATCC)
T1 sequence (P41231 whole entry): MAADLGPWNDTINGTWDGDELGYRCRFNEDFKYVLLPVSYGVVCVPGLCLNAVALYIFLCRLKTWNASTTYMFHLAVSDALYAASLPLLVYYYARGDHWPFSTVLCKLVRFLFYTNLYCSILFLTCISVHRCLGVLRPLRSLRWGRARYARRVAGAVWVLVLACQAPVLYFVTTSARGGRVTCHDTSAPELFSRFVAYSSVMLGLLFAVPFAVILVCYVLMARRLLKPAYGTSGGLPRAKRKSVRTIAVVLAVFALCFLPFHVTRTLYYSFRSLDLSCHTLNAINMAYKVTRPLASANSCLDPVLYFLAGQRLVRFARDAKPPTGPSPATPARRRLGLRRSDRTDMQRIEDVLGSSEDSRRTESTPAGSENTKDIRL

SARS-CoV-2 [5] = assay: SARS-CoV-2 replication in ACE2-A549 cells (RdRp and E mRNA, Spike expression); type: cell-based; conditions: ACE2-A549, 48 hours; 500 μM UTP, 100 μM Diquafosol, 5 μM Denufosol; FIG. 7F-H
SARS-CoV-2 [6] = type: cell-based; conditions: Vero E6, 72 hours infection, MOI 1-2, indicated concentrations, MTT
[7] = system: PMA-treated THP1 macrophages; assay: IL-1β release from LPS+ATP-stimulated PMA-THP1 macrophages (western blot/ELISA); type: cell-based, human; conditions: for IL-1β release: 100 μM compound, 10 ng/mL LPS 3 hours + 5 mM ATP 6 hours, FIG. 6E, 6I
Procedure: (§1) Human THP-1 cells were cultured in RPMI 1640 media, supplemented with 10% FBS and differentiated by treatment for 3 hours with 100 nM phorbol-12-myristate-13-acetate (PMA, Invivogen). After 2 days, macrophage THP-1 cells were stimulated first 3 hours with ultrapure LPS from E. coli (10 ng/ml, LPS) and then stimulated for 6 hours with ATP (5 mM, Sigma) or treated with 50 ng or 20 ng of IFNg during 24 or 12 hours as indicated. Then, supernatants and cells were collected for western blot analysis.
(§2) Cells or supernatant were lysed in appropriated buffer (250 mM NaCl, 0.1% NP-40, 5 mM EDTA, 10 mM Na3VO4, 10 mM NaF, 5 mM DTT, 3 mM Na4P2O7, 1 mM EGTA, 10 mM Glycerol phosphate, 10 mM Tris-Hcl (pH=7.5) and the protease and phosphatase inhibitors (Roche)). Equal amount of supernatant or 10-40 μg of protein extracts were run on 4-12% or 10% SDS-PAGE and transferred at 4° C. onto a nitrocellulose membrane (0.2 Micron). After incubation for 2 hours at room temperature with 5% nonfat milk or BSA (Bovine Serum Albumine) in Tris-buffered saline and 0.1% Tween 20 (TBS-Tween), membranes were incubated with primary antibody at 4° C. overnight. […] The primary antibodies against. […] Western blots shown are representative of at least of three independent experiments.
Plasma serum from P2y2^+/+ and P2y2^−/− mice and supernatants harvested from PMA-stimulated THP1 macrophages that were depleted or not for P2Y2 or NLRP3, and/or stimulated with 10 ng/mL LPS during 3 hours and 5 mM ATP during 6 hours or with 20 ng/mL IFNγ, in presence or in absence of 100 μM Suramin, 100 μM OxATP, 100 μM Kaempferol or 100 μM Diquafosol at indicated times were analyzed using western blot or ELISA for IL-1β (Ebioscience) and IL-10 (BD) according to the manufacturers' instructions.

[8] = system: PMA-treated THP1 macrophages; assay: IRF5 expression in IFNγ-stimulated PMA-THP1 macrophages (western blot); type: cell-based, human
Procedure: as §1, §2
Total cellular proteins were extracted and lysed in appropriated buffer containing 250 mM NaCl, 0.1% NP-40, 5 mM EDTA. 10 mM Na3VO4, 10 mM NaF, 5 mM DTT, 3 mM Na4P2O7, 1 mM EGTA, 10 mM Glycerol phosphate, 10 mM Tris-HCl (pH=7.5) and the protease and phosphatase inhibitors (Roche)). Then, 10-40 μg of protein extracts were run on 4-12% or 12% SDS-PAGE and transferred at 4° C. onto a nitrocellulose membrane (0.2 Micron). After 2 hours saturation at room temperature with 5% nonfat milk or BSA (Bovine Serum Albumin) in Tris-buffered saline and 0.1% Tween 20 (TBS-Tween), nitrocellulose membranes were incubated with primary antibody at 4° C. overnight. […] The primary antibodies against P2Y2 (#APR-010) and P2X7 (#APR-004) were obtained from Alomone laboratories. […]

[9] = system: Bleomycin-induced lung inflammation; assay: Mouse model of bleomycin-induced lung inflammation; type: in vivo, C57BL/6 mice; conditions: 300 μg intraperitoneally every 3 days
SARS-CoV-2 [10] = type: cell-based; conditions: Vero E6, 24 hours, 50 μM PPADS, 100 μM OxATP

Compound	amount of RdRp and E mRNA (viral replication) (SARS-CoV-2 [1])	intracellular expression of Spike (SARS-CoV-2 [2])	ACE2 expression in response to SARS-CoV-2 infection (SARS-CoV-2 [2])	ACE2 membrane expression (ACE2 [3])	ACE2 membrane expression (ACE2 [4])	viability of uninfected cells (Vero E6 cells)	viability of uninfected cells (ACE2-A549 cells)	replication of SARS-CoV-2 and/or associated cytopathogenic effects (SARS-CoV-2 [1])	replication of SARS-CoV-2 and/or associated cytopathogenic effects (SARS-CoV-2 [5])	cytopathogenicity / cytopathogenic effects of SARS-CoV-2 (SARS-CoV-2 [6])	IL-1β release [7]	other results
2′(3′)-O-(4-Benzoylbenzoyl) adenosine 5′-triphosphate [BzATP]	strongly enhanced viral replication	increase of intracellular Spike expression levels	reduces ACE2 expression levels	did not change	did not change	did not show a significant impact	did not show a significant impact					entry of SARS-CoV2 into host cells (SARS-CoV-2 [2]; Vero E6): significantly increased the entry of SARS-CoV2 into host cells
Cc1ccc2c(c1)C=Cc1cc(C)ccc1C2c1cn(Cc2ccc(C(=O)Nc3nn[nH]n3)o2)c(=O)[nH]c1=S [AR-C118925XX]												P2Y2-NLRP3 interaction (frequency of PLA+ cells) (P2Y2-NLRP3 interaction): enhanced the P2Y2-NLRP3 interaction
Nc1ccn([C@H]2C[C@H](O)[C@@H](COP(=O)(O)OP(=O)(O)OP(=O)(O)OP(=O)(O)OC[C@H]3O[C@@H](n4ccc(=O)[nH]c4=O)[C@H](O)[C@@H]3O)O2)c(=O)n1 [Denufosol]	strongly reduced the amount of RdRp and E mRNA			did not change	did not change			strongly blocked the replication of SARS-CoV-2 and/or reduced associated cytopathogenic effects	strongly blocked the replication of SARS-CoV-2 and/or reduced associated cytopathogenic effects	exhibited inhibitory effects on cytopathogenicity		
O=c1ccn([C@@H]2O[C@H](COP(=O)(O)OP(=O)(O)OP(=O)(O)OP(=O)(O)OC[C@H]3O[C@@H](n4ccc(=O)[nH]c4=O)[C@H](O)[C@@H]3O)[C@@H](O)[C@H]2O)c(=O)[nH]1 [Diquafosol]	strongly reduced the amount of RdRp and E mRNA		repressed ACE2 down regulation	did not change	did not change			strongly blocked the replication of SARS-CoV-2 and/or reduced associated cytopathogenic effects	strongly blocked the replication of SARS-CoV-2 and/or reduced associated cytopathogenic effects	exhibited inhibitory effects on cytopathogenicity	impaired IL-1β release	release of IL-1β in supernatant ([7]; indicated concentrations, 12 hours, LPS+ATP, FIG. 1B): impaired the release of IL-1β; IFNγ-mediated increase expression of IRF5 ([8]; PMA-THP1 macrophages, FIG. 6P): impaired IFNγ-mediated increase expression of IFN regulatory factor 5 (IRF5); IRF5 expression ([8]; indicated concentrations, 20 ng IFNγ 12 hours, FIG. 1D): confirmed; Bleomycin-induced lung inflammation ([9]; 50 UI bleomycin intratracheal, FIG. 17): abolishes Bleomycin-induced lung inflammation; lung lesions (CT scan) ([9]; day 20, FIG. 17A): reduces lung lesions induced by bleomycin treatment
O=c1ccn([C@@H]2O[C@H](COP(=O)(O)OP(=O)(O)OP(=O)(O)OP(=O)(O)Oc3ccccc3)[C@@H](O)[C@H]2O)c(=O)[nH]1 [MRS2768]												release of IL-1β in supernatant ([7]; 50 μM, 1 hour pretreatment, 10 ng/ml LPS 3 hours + 5 mM ATP 6 hours, FIG. 1A): strongly inhibited the release of IL-1β
Nc1ncnc2c1ncn2[C@@H](C=O)O[C@@H](C=O)COP(=O)(O)OP(=O)(O)OP(=O)(O)O [OxATP, oxidized ATP]		reduced	repressed ACE2 down regulation	did not change	did not change	partially affected viability	partially affected viability			reduced	reduced IL-1β release	frequency of Spike-positive cells (SARS-CoV-2 [10]): reduced the frequency of Spike-positive cells
Cc1nc(N=Nc2ccc(S(=O)(=O)O)cc2S(=O)(=O)O)c(COP(=O)(O)O)c(C=O)c1O [PPADS, pyridoxal-phosphate-6-azopheny-2′,4′-disulfonate]	repressed RdRp and E mRNA expression	reduced		did not change	did not change	partially affected viability	partially affected viability			reduced		frequency of Spike-positive cells (SARS-CoV-2 [10]): reduced the frequency of Spike-positive cells
Cc1ccc(C(=O)Nc2ccc(S(=O)(=O)O)c3cc(S(=O)(=O)O)cc(S(=O)(=O)O)c23)cc1NC(=O)c1cccc(NC(=O)Nc2cccc(C(=O)Nc3cc(C(=O)Nc4ccc(S(=O)(=O)O)c5cc(S(=O)(=O)O)cc(S(=O)(=O)O)c45)ccc3C)c2)c1 [Suramin]											increased IL-1β release	
O=c1ccn([C@@H]2O[C@H](COP(=O)(O)OP(=O)(O)OP(=O)(O)O)[C@@H](O)[C@H]2O)c(=O)[nH]1 [UTP, Uridine 5′-triphosphate]	strongly reduced the amount of RdRp and E mRNA		repressed ACE2 down regulation	did not change	did not change			strongly blocked the replication of SARS-CoV-2 and/or reduced associated cytopathogenic effects	strongly blocked the replication of SARS-CoV-2 and/or reduced associated cytopathogenic effects	exhibited inhibitory effects on cytopathogenicity		IRF5 expression ([8]; 10 and 100 μM, 50 ng IFNγ 24 hours, FIG. 1C): decrease of IRFS expression
